Assay results from paper PMC5514153, “Targeting PTPRZ inhibits stem cell-like properties and tumorigenicity in glioblastoma cells” (Scientific Reports, 2017).

Test system: paxillin at Tyr-118 in C6 cells
Assay: Paxillin Tyr-118 phosphorylation in C6 cells (Western blot)
Format: cell-based, rat
Details: 25 µM
Description: Figure 7 Cellular effects of NAZ2329 on the malignant phenotypes of C6 cells. (A) Phosphorylation of paxillin at Tyr-118. C6 cells were incubated with NAZ2329 for the indicated periods. Immunoprecipitated paxillin was analyzed by Western blotting using anti-pY118-paxillin and anti-paxillin. Blots are representative of five independent cultures. […] (B) Cell proliferation assay. C6 cells were incubated for 48 h with NAZ2329 in normal medium containing 2% FBS. […] (C) Boyden chamber assay. Cells were allowed to migrate for 3 h. DAPI-stained nuclei are shown before (total) and after (migrated) the removal of cells remaining in the top chamber. Scale bars, 100 µm. […] (D,E) Sphere formation (D) and SOX2 expression (E). C6 cells were cultured in CSC medium for 7 days with indicated concentrations of NAZ2329. Images are representative of five independent cultures. Scale bars, 100 µm. […] (F) Self-renewal of C6 spheres. […]
After precleaning the extracts with Protein G Sepharose (#17-0618-02, GE Healthcare), samples were subjected to immunoprecipitation with Protein G Sepharose coated with a mouse anti-paxillin antibody. […] The binding of these antibodies was detected with Luminata Forte Western HRP substrate (Millipore) and imaged with a chemiluminescent image analyzer system (EZ-Caputure MG, Atto Corp).

Compound: CCOc1ccc(C(F)(F)F)cc1CSc1ccsc1C(=O)NS(=O)(=O)c1ccccc1 [NAZ2329]
- phosphorylation level of paxillin at Tyr-118: significantly enhanced the phosphorylation level
